Assay results from the NIST ThermoML archive (doi:10.1016/j.jct.2016.03.021).

Test: wn = mass fraction of the nth substance listed
Conditions: Liquid; for mass density: Vibrating tube method

NCCO [2-aminoethan-1-ol] + O
viscosity [mPa·s]
Conditions | w1 = 0.1 | w1 = 0.1001 | w1 = 0.2 | w1 = 0.3 | w1 = 0.3005 | w1 = 0.4 | w1 = 0.4001
293.15 K, 93 kPa, Concentric cylinders viscometry | 1.409 | – | 1.982 | 2.967 | – | 4.326 | –
293.15 K, 100 kPa, Falling or rolling sphere viscometry | – | 1.435 | 1.968 | – | 2.913 | – | 4.315
293.15 K, 101 kPa, Falling or rolling sphere viscometry | 1.435 | – | 1.968 | 2.913 | – | 4.315 | –
293.15 K, 5000 kPa, Falling or rolling sphere viscometry | – | 1.435 | 1.97 | – | 2.921 | – | 4.34
293.15 K, 10000 kPa, Falling or rolling sphere viscometry | – | 1.434 | 1.969 | – | 2.93 | – | 4.368
293.15 K, 20000 kPa, Falling or rolling sphere viscometry | – | 1.43 | 1.973 | – | 2.952 | – | 4.426
293.15 K, 30000 kPa, Falling or rolling sphere viscometry | – | 1.43 | 1.977 | – | 2.972 | – | 4.475
293.15 K, 40000 kPa, Falling or rolling sphere viscometry | – | 1.429 | 1.983 | – | 2.99 | – | 4.528
293.15 K, 60000 kPa, Falling or rolling sphere viscometry | – | 1.431 | 1.994 | – | 3.032 | – | 4.628
293.15 K, 80000 kPa, Falling or rolling sphere viscometry | – | 1.434 | 2.009 | – | 3.076 | – | 4.739
293.15 K, 100000 kPa, Falling or rolling sphere viscometry | – | 1.432 | 2.026 | – | 3.12 | – | 4.845
293.15 K, 120000 kPa, Falling or rolling sphere viscometry | – | 1.443 | 2.046 | – | 3.162 | – | 4.954
313.15 K, 93 kPa, Concentric cylinders viscometry | 0.8932 | – | 1.198 | 1.675 | – | 2.284 | –
313.15 K, 100 kPa, Falling or rolling sphere viscometry | – | 0.891 | 1.173 | – | 1.638 | – | 2.284
313.15 K, 101 kPa, Falling or rolling sphere viscometry | 0.891 | – | 1.173 | 1.638 | – | 2.284 | –
313.15 K, 5000 kPa, Falling or rolling sphere viscometry | – | 0.892 | 1.178 | – | 1.642 | – | –

mass density [kg/m3]
Conditions | w1 = 0.1001 | w1 = 0.2 | w1 = 0.3005 | w1 = 0.4
293.15 K, 100 kPa | 1002.5 | 1006.9 | 1012.3 | 1018.1
293.15 K, 500 kPa | 1002.7 | 1007 | 1012.5 | 1018.1
293.15 K, 1000 kPa | 1002.9 | 1007.2 | 1012.7 | 1018.3
293.15 K, 2000 kPa | 1003.3 | 1007.6 | 1013 | 1018.6
293.15 K, 5000 kPa | 1004.6 | 1008.7 | 1014.1 | 1019.6
293.15 K, 10000 kPa | 1006.7 | 1010.7 | 1016 | 1021.4
293.15 K, 15000 kPa | 1008.8 | 1012.6 | 1017.7 | 1023.1
293.15 K, 20000 kPa | 1010.9 | 1014.5 | 1019.6 | 1024.8
293.15 K, 30000 kPa | 1015.1 | 1018.4 | 1023.2 | 1028.3
293.15 K, 40000 kPa | 1019.1 | 1022.1 | 1026.6 | 1031.6
293.15 K, 50000 kPa | 1023 | 1025.8 | 1030 | 1034.8
293.15 K, 60000 kPa | 1026.9 | 1029.4 | 1033.5 | 1038.1
293.15 K, 70000 kPa | 1030.8 | 1033 | 1036.9 | 1041.4
293.15 K, 80000 kPa | 1034.5 | 1036.2 | 1040 | 1044.3
293.15 K, 90000 kPa | 1038.2 | 1039.7 | 1043.3 | 1047.5
293.15 K, 100000 kPa | 1041.8 | 1043.2 | 1046.6 | 1050.4
293.15 K, 110000 kPa | 1045.2 | 1046.4 | 1049.6 | 1053.3
293.15 K, 120000 kPa | 1048.8 | 1049.6 | 1052.6 | 1056.3
313.15 K, 100 kPa | 995.9 | 999.1 | 1003.2 | 1007.5
313.15 K, 500 kPa | 996 | 999.2 | 1003.4 | 1007.7
313.15 K, 1000 kPa | 996.3 | 999.4 | 1003.6 | 1007.9
313.15 K, 2000 kPa | 996.6 | 999.8 | 1004 | 1008.3
